Reference: US5326882A, “Chemiluminescent 3-(substituted Adamant-2'-Ylidene) 1,2-dioxetanes” (Tropix, Inc., priority 1992, dated 1994)

How the values were obtained:
[1] = biological target: T1, alkaline phosphatase (calf intestine; Biozyme) (Bos taurus, UniProt P19111); test: Total dephosphorylation, chemiluminescence decay (Example XIII); assay type: biochemical; conditions: 30° C., carbonate/bicarbonate buffer, listed as OH-Adamant-2'-ylidene (A isomer)
T1 construct: purchased Biozyme; host or cells: calf intestine
T1 sequence (P19111 20-506 limits assumed): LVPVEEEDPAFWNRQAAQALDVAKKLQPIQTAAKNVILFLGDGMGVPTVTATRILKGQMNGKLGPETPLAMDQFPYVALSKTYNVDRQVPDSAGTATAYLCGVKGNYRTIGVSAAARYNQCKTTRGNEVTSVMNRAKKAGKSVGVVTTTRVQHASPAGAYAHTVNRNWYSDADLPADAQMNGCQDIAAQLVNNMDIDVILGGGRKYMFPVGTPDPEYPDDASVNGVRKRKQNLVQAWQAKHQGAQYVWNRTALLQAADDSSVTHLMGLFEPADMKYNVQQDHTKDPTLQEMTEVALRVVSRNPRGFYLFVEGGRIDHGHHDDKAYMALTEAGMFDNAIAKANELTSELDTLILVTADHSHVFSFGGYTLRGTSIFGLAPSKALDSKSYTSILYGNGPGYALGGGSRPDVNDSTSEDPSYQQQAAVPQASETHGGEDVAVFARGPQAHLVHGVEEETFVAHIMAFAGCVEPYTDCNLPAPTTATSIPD
Protocol: A comparison of the total luminescence emission from AMPPD and from the corresponding 1,2-dioxetanes whose adamant-2'-ylidene groups are monosubstituted with hydroxy (A and B isomers), chloro and bromo groups was made by carrying out total dephosphorylation experiments on each of these compounds.
An aqueous solution of the 1,2-dioxetane (4.0 mm) in 0.05M sodium carbonate/sodium bicarbonate containing 1 mM magnesium chloride was prepared and then equilibrated at 30° C. Ten μl of a 7.64×10M aqueous solution of alkaline phosphatase (calf intestine; Biozyme) was then added, and the chemiluminescence from the resulting solution was recorded using a Turner Model 20E luminometer (Turner Instruments; Sunnyvale, Calif.).
The rates of chemiluminescence decay for each of the five compounds in question, expressed in relative light units (RLU's) per minute, are given in the following table.

alkaline phosphatase = alkaline phosphatase (Bos taurus, UniProt P19111); test: Chemiluminescent signal and signal:background with enhancer polymers (Example XVII); assay type: biochemical
Chain of alkaline phosphatase (P19111 20-506 limits assumed): as above
Protocol: Four sets of three tubes each, each tube in each set containing 450 μl of a 0.4 mM aqueous solution of one of the four 1,2-dioxetanes being compared in 0.1M diethanolamine containing 1 mM magnesium chloride, 0.02% sodium azide and 0.1% of the enhancer polymer, pH 10.0 (substrate buffer) were prepared and the background signal from each tube measured using a Berthold LB 952T luminometer (Berthold Instruments; Wildbad, Federal Republic of Germany).
Next, 50 μl of an aqueous solution, 2.83×10^-12 M of alkaline phosphatase in 0.1M diethanolamine containing 1 mM magnesium chloride, 0.02% sodium azide, pH 10.0, (final enzyme concentration 2.83×10^-13 M) was added to each tube and the chemiluminescent signals were measured in the luminometer at 5 and 20 minutes. The intensity of the chemiluminescent signals and the signal: background ratios obtained for each of the four 1,2-dioxetanes in the presence of the enhancer polymers are shown in Table III below.
The enhancer polymers used, and the symbols for such polymers used in Table III, were the following: […]

[2] = biological target: T2, alkaline phosphatase-labeled DNA probe (Bos taurus, UniProt P19111); test: Alkaline phosphatase-labeled DNA probe detection in membrane with and without BDMQ blocking step (Example XV); conditions: for Detection limit (in picograms DNA) 5. min. exp.: five minute exposure 40 minutes after dioxetane addition; for Detection limit (in picograms DNA) 1 min. exp.: one minute exposure 77 minutes after dioxetane addition
T2 construct: purchased Tropix, Inc
T2 sequence (P19111 20-506 limits assumed): as above
T2 sequence (P02701 25-152 partner): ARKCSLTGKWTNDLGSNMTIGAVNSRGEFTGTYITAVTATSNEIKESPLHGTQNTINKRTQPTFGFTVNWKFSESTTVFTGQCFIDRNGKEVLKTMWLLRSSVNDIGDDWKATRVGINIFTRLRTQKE
Protocol: pBr 322 plasmid (4700 bp) was subjected to a nick translation process using a Trans-Light kit (Tropix, Inc., Bedford, Mass.) to generate a mixture of biotinylated single stranded polynucleotides of 200-2000 bps in length.
This mixture was dotted onto a dry BIODYNE A membrane as five parallel columns of dots of the following concentrations:
The membrane was subjected to ultraviolet irradiation (UVP Mineral Light; UVP, San Gabriel, Calif.) for 3 minutes to fix the DNA to the surface of the membrane, then air dried. Next, the membrane was blocked in 0.2% casein/0.1% Tween 20 detergent in PBS for 1 hour, following which 1/5000 diluted avidin-alkaline phosphatase conjugate (Tropix, Inc.) in 0.2% casein in PBS was added. The membrane was then incubated for 30 minutes, washed three times (for 5 minutes each time) in 0.2% casein/0.1% Tween 20 detergent in PBS and washed once for five minutes in aqueous 0.1M diethanolamine containing 1 mm magnesium chloride and 0.02% sodium azide, pH 10.0 (substrate buffer).
Next, the five columns of rows of dots 1-5 were individually cut from the membrane ("strips 1-5"), as were the five columns of rows of dots 6-10 ("strips 6-10"). Strips 1-5 were washed with substrate buffer for 30 minutes. Strips 6-10 were blocked in 0.1% BDMQ in substrate buffer for 30 minutes. Both sets of strips were then incubated for 5 minutes in substrate buffer, then individually incubated for five minutes in aqueous solutions (0.25 mM) of 1,2-dioxetanes as indicated below:
All strips were then placed in camera luminometers and exposed on Polaroid Type 612 instant black and white film.

[3] = BDMQ blocking step, listed as OH-Adamant-2'-ylidene (A isomer)

Q: How did the “Total Decay Time” value [1] turn out when `COC1(c2cccc(OP(=O)(O)O)c2)OOC12C1CC3CC2CC(O)(C3)C1` (single isomer, unassigned) [A-OH-AMPPD, disodium 3-(4-methoxyspiro-[1,2-dioxetane-3,2'-(5'-hydroxy)tricyclo[3.3.1.1^3,7]decan]-4-yl)phenyl phosphate] was run?
A: 9 min

Q: What about the “Decay Rate I” value ([1]; RLU's per minute) of the same compound?
A: 1.3 RLU's per minute

Q: What about the S/N (alkaline phosphatase; polymer BAEDM, 5 min) of the same compound?
A: 61.6

Q: What about the SIGNAL (alkaline phosphatase; polymer BAEDM, 5 min) of the same compound?
A: 5887.3

Q: What about the S/N (alkaline phosphatase; polymer BAEDM, 20 min) of the same compound?
A: 77.8

Q: And the SIGNAL (alkaline phosphatase; polymer BAEDM, 20 min)?
A: 7433.5

Q: And the S/N (alkaline phosphatase; polymer BAEDM, time 0)?
A: 1.0

Q: And the SIGNAL (alkaline phosphatase; polymer BAEDM, time 0 (background, before enzyme))?
A: 95.6

Q: And the S/N (alkaline phosphatase; polymer BZ, 5 min)?
A: 27.0

Q: What about the SIGNAL (alkaline phosphatase; polymer BZ, 5 min) of the same compound?
A: 2156.9

Q: What about the S/N (alkaline phosphatase; polymer BZ, 20 min) of the same compound?
A: 31.7

Q: And the SIGNAL (alkaline phosphatase; polymer BZ, 20 min)?
A: 2536.7

Q: What about the S/N (alkaline phosphatase; polymer BZ, time 0) of the same compound?
A: 1.0

Q: And the SIGNAL (alkaline phosphatase; polymer BZ, time 0 (background, before enzyme))?
A: 79.9

Q: What about the S/N (alkaline phosphatase; polymer DAA TMQ, 5 min) of the same compound?
A: 61.7

Q: What about the SIGNAL (alkaline phosphatase; polymer DAA TMQ, 5 min) of the same compound?
A: 5583.1

Q: What about the S/N (alkaline phosphatase; polymer DAA TMQ, 20 min) of the same compound?
A: 69.7

Q: What about the SIGNAL (alkaline phosphatase; polymer DAA TMQ, 20 min) of the same compound?
A: 6309.4

Q: And the S/N (alkaline phosphatase; polymer DAA TMQ, time 0)?
A: 1.0

Q: What about the SIGNAL (alkaline phosphatase; polymer DAA TMQ, time 0 (background, before enzyme)) of the same compound?
A: 90.5

Q: And the S/N (alkaline phosphatase; polymer DME(OH)B, 5 min)?
A: 46.1

Q: And the SIGNAL (alkaline phosphatase; polymer DME(OH)B, 5 min)?
A: 3931.9

Q: What about the S/N (alkaline phosphatase; polymer DME(OH)B, 20 min) of the same compound?
A: 66.2

Q: What about the SIGNAL (alkaline phosphatase; polymer DME(OH)B, 20 min) of the same compound?
A: 5300.5

Q: And the S/N (alkaline phosphatase; polymer DME(OH)B, time 0)?
A: 1.0

Q: And the SIGNAL (alkaline phosphatase; polymer DME(OH)B, time 0 (background, before enzyme))?
A: 85.2

Q: What about the S/N (alkaline phosphatase; polymer DMEB, 5 min) of the same compound?
A: 77.1

Q: And the SIGNAL (alkaline phosphatase; polymer DMEB, 5 min)?
A: 6160.6

Q: And the S/N (alkaline phosphatase; polymer DMEB, 20 min)?
A: 98.1

Q: And the SIGNAL (alkaline phosphatase; polymer DMEB, 20 min)?
A: 7835.2

Q: And the S/N (alkaline phosphatase; polymer DMEB, time 0)?
A: 1.0

Q: What about the SIGNAL (alkaline phosphatase; polymer DMEB, time 0 (background, before enzyme)) of the same compound?
A: 79.9

Q: What about the S/N (alkaline phosphatase; polymer DMQ TEQ, 5 min) of the same compound?
A: 189.7

Q: And the SIGNAL (alkaline phosphatase; polymer DMQ TEQ, 5 min)?
A: 17235.6

Q: And the S/N (alkaline phosphatase; polymer DMQ TEQ, 20 min)?
A: 227.9

Q: And the SIGNAL (alkaline phosphatase; polymer DMQ TEQ, 20 min)?
A: 20702.2

Q: What about the S/N (alkaline phosphatase; polymer DMQ TEQ, time 0) of the same compound?
A: 1.0

Q: And the SIGNAL (alkaline phosphatase; polymer DMQ TEQ, time 0 (background, before enzyme))?
A: 90.8

Q: What about the S/N (alkaline phosphatase; polymer MPB, 5 min) of the same compound?
A: 140.7

Q: What about the SIGNAL (alkaline phosphatase; polymer MPB, 5 min) of the same compound?
A: 13165.3

Q: And the S/N (alkaline phosphatase; polymer MPB, 20 min)?
A: 172.7

Q: And the SIGNAL (alkaline phosphatase; polymer MPB, 20 min)?
A: 16159.2

Q: What about the S/N (alkaline phosphatase; polymer MPB, time 0) of the same compound?
A: 1.0

Q: What about the SIGNAL (alkaline phosphatase; polymer MPB, time 0 (background, before enzyme)) of the same compound?
A: 93.6

Q: What about the S/N (alkaline phosphatase; polymer NONE, 5 min) of the same compound?
A: 32.9

Q: And the SIGNAL (alkaline phosphatase; polymer NONE, 5 min, enzyme 2.83×10^-13 M)?
A: 2863.6

Q: And the S/N (alkaline phosphatase; polymer NONE, 20 min)?
A: 36.3

Q: What about the SIGNAL (alkaline phosphatase; polymer NONE, 20 min, enzyme 2.83×10^-13 M) of the same compound?
A: 3160.8

Q: And the S/N (alkaline phosphatase; polymer NONE, time 0)?
A: 1.0

Q: What about the SIGNAL (alkaline phosphatase; polymer NONE, time 0 (background, before enzyme)) of the same compound?
A: 87.0

Q: And the S/N (alkaline phosphatase; polymer S/TMQ(1:2), 5 min)?
A: 112.5

Q: And the SIGNAL (alkaline phosphatase; polymer S/TMQ(1:2), 5 min)?
A: 10193.8

Q: What about the S/N (alkaline phosphatase; polymer S/TMQ(1:2), 20 min) of the same compound?
A: 158.6

Q: And the SIGNAL (alkaline phosphatase; polymer S/TMQ(1:2), 20 min)?
A: 11365.1

Q: And the S/N (alkaline phosphatase; polymer S/TMQ(1:2), time 0)?
A: 1.0

Q: What about the SIGNAL (alkaline phosphatase; polymer S/TMQ(1:2), time 0 (background, before enzyme)) of the same compound?
A: 90.6

Q: What about the S/N (alkaline phosphatase; polymer S/TMQ(1:4), 5 min) of the same compound?
A: 114.5

Q: And the SIGNAL (alkaline phosphatase; polymer S/TMQ(1:4), 5 min)?
A: 9294.6

Q: And the S/N (alkaline phosphatase; polymer S/TMQ(1:4), 20 min)?
A: 148.1

Q: And the SIGNAL (alkaline phosphatase; polymer S/TMQ(1:4), 20 min)?
A: 1201.7

Q: What about the S/N (alkaline phosphatase; polymer S/TMQ(1:4), time 0) of the same compound?
A: 1.0

Q: What about the SIGNAL (alkaline phosphatase; polymer S/TMQ(1:4), time 0 (background, before enzyme)) of the same compound?
A: 81.2

Q: What about the SIGNAL (alkaline phosphatase; polymer SAPPHIRE (BDMQ), time 0 (background, before enzyme)) of the same compound?
A: 86.1

Q: And the S/N (alkaline phosphatase; polymer SAPPHIRE, 5 min)?
A: 244.5

Q: And the SIGNAL (alkaline phosphatase; polymer SAPPHIRE, 5 min)?
A: 21051.3

Q: And the S/N (alkaline phosphatase; polymer SAPPHIRE, 20 min)?
A: 292.3

Q: And the SIGNAL (alkaline phosphatase; polymer SAPPHIRE, 20 min)?
A: 25330.3

Q: What about the S/N (alkaline phosphatase; polymer SAPPHIRE, time 0) of the same compound?
A: 1.0

Q: And the S/N (alkaline phosphatase; polymer TBQ, 5 min)?
A: 366.0

Q: And the SIGNAL (alkaline phosphatase; polymer TBQ, 5 min)?
A: 37244.5

Q: And the S/N (alkaline phosphatase; polymer TBQ, 20 min)?
A: 438.0

Q: And the SIGNAL (alkaline phosphatase; polymer TBQ, 20 min)?
A: 44569.8

Q: What about the S/N (alkaline phosphatase; polymer TBQ, time 0) of the same compound?
A: 1.0

Q: And the SIGNAL (alkaline phosphatase; polymer TBQ, time 0 (background, before enzyme))?
A: 101.8

Q: What about the S/N (alkaline phosphatase; polymer TEQ, 5 min) of the same compound?
A: 45.24

Q: And the SIGNAL (alkaline phosphatase; polymer TEQ, 5 min)?
A: 15779.8

Q: And the S/N (alkaline phosphatase; polymer TEQ, 20 min)?
A: 54.7

Q: What about the SIGNAL (alkaline phosphatase; polymer TEQ, 20 min) of the same compound?
A: 1908.9

Q: What about the S/N (alkaline phosphatase; polymer TEQ, time 0) of the same compound?
A: 1.0

Q: And the SIGNAL (alkaline phosphatase; polymer TEQ, time 0 (background, before enzyme))?
A: 348.8

Q: And the S/N (alkaline phosphatase; polymer TMQ, 5 min)?
A: 113.6

Q: And the SIGNAL (alkaline phosphatase; polymer TMQ, 5 min)?
A: 8853.4

Q: And the S/N (alkaline phosphatase; polymer TMQ, 20 min)?
A: 149.6

Q: What about the SIGNAL (alkaline phosphatase; polymer TMQ, 20 min) of the same compound?
A: 11658.3

Q: And the S/N (alkaline phosphatase; polymer TMQ, time 0)?
A: 1.0

Q: What about the SIGNAL (alkaline phosphatase; polymer TMQ, time 0 (background, before enzyme)) of the same compound?
A: 77.9

Q: And the “Detection limit (in picograms DNA) 5. min. exp.” value [2, 3]?
A: 0.625 picograms DNA

Q: What about the “Detection limit (in picograms DNA) 1 min. exp.” value [2, 3] of the same compound?
A: 2.500 picograms DNA

Q: And the “Detection limit (in picograms DNA) 5. min. exp.” value ([2]; no BDMQ blocking step)?
A: 5.000 picograms DNA

Q: What about the “Detection limit (in picograms DNA) 1 min. exp.” value ([2]; no BDMQ blocking step, listed as OH-Adamant-2'-ylidene (A isomer)) of the same compound?
A: 10.000 picograms DNA
